Experimental data taken from ChEMBL document CHEMBL1125030, “Boc-Trp-Orn(Z)-Asp-NH2 and derivatives: a new family of CCK antagonists” (J Med Chem, 1990).
Calls of active or inactive are those of the source. No cut-off for these calls is given here. Where a SMILES comes first, the peptide text is derived from it. [ ]: non-standard residue; d: D form. The star is where a group is joined. Phe(4-SO3H) = N[C@@H](Cc1ccc(S(=O)(=O)O)cc1)C(=O)O; sY = N[C@@H](Cc1ccc(OS(=O)(=O)O)cc1)C(=O)O; Nle = CCCC[C@H](N)C(=O)O; Orn = NCCC[C@H](N)C(=O)O; Cbz = O=C(OCc1ccccc1)*; Boc = CC(C)(C)OC(=O)*

How the values were obtained:
[1] = target: T1, Cholecystokinin receptor type A (Cavia porcellus, UniProt Q63931); assay: Apparent affinity to inhibit binding of [3H]pCCK-8 to Cholecystokinin type A receptor of guinea pig pancreatic membranes
T1 sequence (Q63931 whole entry): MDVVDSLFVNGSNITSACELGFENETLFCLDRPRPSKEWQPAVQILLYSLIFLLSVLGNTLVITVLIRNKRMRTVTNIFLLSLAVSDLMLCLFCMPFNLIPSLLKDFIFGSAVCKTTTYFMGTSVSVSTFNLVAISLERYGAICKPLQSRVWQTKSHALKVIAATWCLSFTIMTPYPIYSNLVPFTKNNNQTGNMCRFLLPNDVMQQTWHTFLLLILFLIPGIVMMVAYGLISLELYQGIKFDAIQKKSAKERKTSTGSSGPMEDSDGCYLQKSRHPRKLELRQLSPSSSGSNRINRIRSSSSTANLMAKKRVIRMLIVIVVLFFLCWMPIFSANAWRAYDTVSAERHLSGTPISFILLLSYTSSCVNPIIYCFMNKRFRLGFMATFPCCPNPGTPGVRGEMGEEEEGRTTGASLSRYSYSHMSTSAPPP

[2] = Agonist activity expressed as effective concentration that causes 50% stimulation of amylase release from guinea pig pancreatic acini.; ND means no significant activity at 10e-4 M
[3] = Antagonist activity expressed as pA2, evaluated from the potency to stimulate amylase release from guinea pig pancreatic acini; format: functional, Cavia porcellus
Cavia porcellus [4] = species on record: Cavia porcellus; assay: (§1) Antagonist activity expressed as binding constant, evaluated from the potency to stimulate Amylase release from guinea pig pancreatic acini
[5] = Antagonist activity expressed as binding constant, evaluated from the potency to stimulate Amylase release from guinea pig pancreatic acini;Not significant at 10e-4 M; settings: Cavia porcellus
[6] = Agonist activity expressed as effective concentration that causes 50% stimulation of amylase release from guinea pig pancreatic acini;Not significant; format: functional, Cavia porcellus
Cavia porcellus [7] = species on record: Cavia porcellus; assay: Antagonist activity expressed as binding constant, evaluated from the potency to stimulate Amylase release from guinea pig pancreatic acini;Not significant
[8] = as §1; design: species or system Cavia porcellus
[9] = Agonist activity expressed as effective concentration that causes 50% stimulation of amylase release from guinea pig pancreatic acini.; ND means no significant activity at 10e-4 M; format: functional, Cavia porcellus
[10] = Agonist activity expressed as effective concentration that causes 50% stimulation of amylase release from guinea pig pancreatic acini; format: functional, Cavia porcellus
[11] = Antagonist activity expressed as pA2, evaluated from the potency to stimulate Amylase release from guinea pig pancreatic acini; format: functional, Cavia porcellus
[12] = Agonist activity expressed as effective concentration that causes 50% stimulation of Amylase release from guinea pig pancreatic acini.; ND means no significant activity at 10e-4 M; format: functional, Cavia porcellus

Row | SMILES | Ki [1] | EC50 [2] | pA2 [3] | Kb (Cavia porcellus [4]) | other results
1 | CC(C)(C)OC(=O)N[C@@H](Cc1c[nH]c2ccccc12)C(=O)N[C@@H](CCCN)C(=O)N[C@@H](CC(=O)O)C(=O)N[C@@H](Cc1ccccc1)C(N)=O (Boc-W[Orn]DF-NH2) | 14 µM | – | – | – | Kb [5]: inactive; EC50 [6]: 13.8 µM
2 | CC(C)(C)OC(=O)NCCC[C@H](NC(=O)[C@H](Cc1c[nH]c2ccccc12)NC(=O)OC(C)(C)C)C(=O)N[C@@H](CC(=O)O)C(N)=O (Boc-Trp-[Orn](Boc)-Asp-NH2) | 29 µM | Not Active | 4.62 | – | Kb (Cavia porcellus [7]): 0.23 µM
3 | CC(C)(C)OC(=O)NCCC[C@H](NC(=O)[C@H](Cc1c[nH]c2ccccc12)NC(=O)OC(C)(C)C)C(=O)N[C@@H](CC(=O)O)C(=O)N[C@@H](Cc1ccccc1)C(N)=O (Boc-W[Orn](Boc)DF-NH2) | 5.2 µM | – | 4.58 | – | Kb (Cavia porcellus [7]): inactive; EC50 [8]: 13.6 µM
4 | CCCC[C@H](NC(=O)[C@H](Cc1ccc(S(=O)(=O)O)cc1)NC(=O)OC(C)(C)C)C(=O)NCC(=O)N[C@@H](Cc1c[nH]c2ccccc12)C(=O)N[C@@H](CCCNC(=O)OCc1ccccc1)C(=O)N[C@@H](CC(=O)O)C(=O)N[C@@H](Cc1ccccc1)C(N)=O (Boc-[Phe(4-SO3H)][Nle]GW[Orn](Cbz)DF-NH2) | – | – | – | 0.49 µM | –
5 | CC(C)(C)OC(=O)N[C@@H](Cc1c[nH]c2ccccc12)C(=O)N[C@@H](CCCN)C(=O)N[C@@H](CC(=O)O)C(N)=O (Boc-Trp-[Orn]-Asp-NH2) | 1000 µM | – | – | – | –
6 | CCCC[C@H](NC(=O)[C@H](Cc1ccc(S(=O)(=O)O)cc1)NC(=O)OC(C)(C)C)C(=O)NCC(=O)N[C@@H](Cc1c[nH]c2ccccc12)C(=O)N[C@@H](CCCNC(=O)OCc1ccccc1)C(=O)N[C@@H](CC(=O)O)C(N)=O (Boc-[Phe(4-SO3H)][Nle]GW[Orn](Cbz)D-NH2) | – | Not Active | – | 0.22 µM | –

More lines, main results first:

Row | Ki [1] | EC50 [2] | pA2 [3] | Kb (Cavia porcellus [4]) | SMILES | other results
7 | 0.34 µM | Not Active | 6.25 | 0.57 µM | CC(C)(C)OC(=O)N[C@@H](Cc1c[nH]c2ccccc12)C(=O)N[C@@H](CCCNC(=O)OCc1ccccc1)C(=O)N[C@@H](CC(=O)O)C(=O)N[C@@H](Cc1ccccc1)C(N)=O (Boc-W[Orn](Cbz)DF-NH2) | –
8 | 0.2 µM | Not Active | 6.63 | – | CC(C)(C)OC(=O)N[C@@H](Cc1c[nH]c2ccccc12)C(=O)N[C@@H](CCCNC(=O)OCc1ccccc1)C(=O)N[C@@H](CC(=O)O)C(N)=O (Boc-Trp-[Orn](Cbz)-Asp-NH2) | Kb (Cavia porcellus [7]): 0.23 µM
9 | 0.66 µM | – | 5.94 | 1.1 µM | CCCC[C@H](NC(=O)[C@H](Cc1ccc(S(=O)(=O)O)cc1)NC(=O)OC(C)(C)C)C(=O)NCC(=O)N[C@@H](Cc1c[nH]c2ccccc12)C(=O)N[C@@H](CCCNC(=O)OC(C)(C)C)C(=O)N[C@@H](CC(=O)O)C(=O)N[C@@H](Cc1ccccc1)C(N)=O (Boc-[Phe(4-SO3H)][Nle]GW[Orn](Boc)DF-NH2) | EC50 [9]: Not Active
10 | 0.23 µM | – | 6.64 | – | CCCC[C@H](NC(=O)[C@H](Cc1ccc(OS(=O)(=O)O)cc1)NC(=O)OC(C)(C)C)C(=O)NCC(=O)N[C@@H](Cc1c[nH]c2ccccc12)C(=O)N[C@@H](CCCNC(=O)OCc1ccccc1)C(=O)N[C@@H](CC(=O)O)C(N)=O (Boc-[sY][Nle]GW[Orn](Cbz)D-NH2) | –
11 | 0.34 µM | – | – | – | CCCC[C@H](NC(=O)[C@H](Cc1ccc(OS(=O)(=O)O)cc1)NC(=O)OC(C)(C)C)C(=O)NCC(=O)N[C@@H](Cc1c[nH]c2ccccc12)C(=O)N[C@@H](CCCNC(=O)OCc1ccccc1)C(=O)N[C@@H](CC(=O)O)C(=O)N[C@@H](Cc1ccccc1)C(N)=O (stereo in doubt; 2) | EC50 [10]: 0.022 µM
12 | 0.31 µM | – | – | – | CCCC[C@H](NC(=O)[C@H](Cc1ccc(OS(=O)(=O)O)cc1)NC(=O)OC(C)(C)C)C(=O)NCC(=O)N[C@@H](Cc1c[nH]c2ccccc12)C(=O)N[C@@H](CCCNC(=O)OCc1ccccc1)C(=O)N[C@@H](CC(=O)O)C(=O)N[C@@H](Cc1ccccc1)C(N)=O (stereo in doubt; 1) | pA2 [11]: 6.32; EC50 [12]: Not Active
